Measured values reported in the supplement of paper PMC10307832.

Key:
Experiment in all cases: relative viability (nuclei count vs DMSO), 5 days (fraction); higher = more cells survive
[1] = tested on: NCI-H1944
In short: (§1)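 Dosing by pin tool came one day after lung cancer cell lines were seeded in 1536-well plates, using either one drug or a fixed anchor-drug dose plus five library-drug doses (not always all listed) in √10 steps. After 5 days, nuclei were counted on 4× images. Relative viability is treated-well nuclei count divided by vehicle-well nuclei count, and values are medians of duplicate plates.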

[2] = tested on: NCI-H520
In short: as §1

[3] = tested on: PC-14
In short: as §1

[4] = tested on: NCI-H2228
In short: as §1

[5] = tested on: NCI-H838
In short: as §1

[6] = tested on: CAL-12T
In short: as §1

[7] = tested on: NCI-H1395
In short: as §1

[8] = tested on: NCI-H647
In short: as §1

[9] = tested on: NCI-H1993
In short: as §1

[10] = tested on: NCI-H661
In short: as §1

[11] = tested on: SK-LU-1
In short: as §1

[12] = tested on: NCI-H1734
In short: as §1

[13] = tested on: HCC-366
In short: as §1

[14] = tested on: H3255
In short: as §1

[15] = tested on: NCI-H1975
In short: as §1

[16] = tested on: LU99A
In short: as §1

[17] = tested on: PC-3 [JPC-3]
In short: as §1

[18] = tested on: NCI-H1666
In short: as §1

[19] = tested on: HARA
In short: as §1

[20] = tested on: HCC-15
In short: as §1

[21] = tested on: COR-L 105
In short: as §1

[22] = tested on: NCI-H3122
In short: as §1

[23] = tested on: LC-2-ad
In short: as §1

## Cc1cnc(-c2cnc(NCCNc3ccc(C#N)cn3)nc2-c2ccc(Cl)cc2Cl)[nH]1 + Nc1nc2[nH]cc(CCc3ccc(C(=O)N[C@@H](CCC(=O)O)C(=O)O)cc3)c2c(=O)[nH]1 [Pemetrexed] (partner 0.2 µM)
[1]; first compound 0.08 µM
  relative viability: 0.604
[1]; first compound 0.8 µM
  relative viability: 0.633
[1]; first compound 2.53 µM
  relative viability: 0.678
[2]; first compound 0.08 µM
  relative viability: 0.729
[2]; first compound 0.253 µM
  relative viability: 0.727
[2]; first compound 0.8 µM
  relative viability: 0.74
[2]; first compound 2.53 µM
  relative viability: 0.492
[3]; first compound 0.08 µM
  relative viability: 0.122
[3]; first compound 0.253 µM
  relative viability: 0.127
[3]; first compound 0.8 µM
  relative viability: 0.129
[3]; first compound 2.53 µM
  relative viability: 0.152
[4]; first compound 0.08 µM
  relative viability: 0.36
[4]; first compound 0.8 µM
  relative viability: 0.386
[4]; first compound 2.53 µM
  relative viability: 0.288
[5]; first compound 0.08 µM
  relative viability: 0.249
[5]; first compound 0.253 µM
  relative viability: 0.247
[5]; first compound 0.8 µM
  relative viability: 0.236
[5]; first compound 2.53 µM
  relative viability: 0.243
[6]; first compound 0.08 µM
  relative viability: 1.19
[6]; first compound 0.253 µM
  relative viability: 1.04
[6]; first compound 0.8 µM
  relative viability: 1.17
[6]; first compound 2.53 µM
  relative viability: 0.919
[7]; first compound 0.08 µM
  relative viability: 0.958
[7]; first compound 0.253 µM
  relative viability: 0.823
[7]; first compound 0.8 µM
  relative viability: 0.826
[7]; first compound 2.53 µM
  relative viability: 0.756
[8]; first compound 0.08 µM
  relative viability: 0.18
[8]; first compound 0.253 µM
  relative viability: 0.148
[8]; first compound 0.8 µM
  relative viability: 0.145
[8]; first compound 2.53 µM
  relative viability: 0.114
[9]; first compound 0.08 µM
  relative viability: 0.6
[9]; first compound 0.253 µM
  relative viability: 0.512
[9]; first compound 0.8 µM
  relative viability: 0.535
[9]; first compound 2.53 µM
  relative viability: 0.519
[10]; first compound 0.08 µM
  relative viability: 0.876
[10]; first compound 0.253 µM
  relative viability: 0.887
[10]; first compound 0.8 µM
  relative viability: 0.738
[10]; first compound 2.53 µM
  relative viability: 0.649
[11]; first compound 0.08 µM
  relative viability: 0.966
[11]; first compound 0.253 µM
  relative viability: 0.97
[11]; first compound 0.8 µM
  relative viability: 0.975
[11]; first compound 2.53 µM
  relative viability: 0.823
[12]; first compound 0.08 µM
  relative viability: 0.445
[12]; first compound 0.253 µM
  relative viability: 0.371
[12]; first compound 0.8 µM
  relative viability: 0.395
[12]; first compound 2.53 µM
  relative viability: 0.323
[13]; first compound 0.08 µM
  relative viability: 0.161
[13]; first compound 0.253 µM
  relative viability: 0.137
[13]; first compound 0.8 µM
  relative viability: 0.133
[13]; first compound 2.53 µM
  relative viability: 0.126
[14]; first compound 0.08 µM
  relative viability: 0.555
[14]; first compound 0.253 µM
  relative viability: 0.587
[14]; first compound 0.8 µM
  relative viability: 0.533
[14]; first compound 2.53 µM
  relative viability: 0.508
[15]; first compound 0.08 µM
  relative viability: 0.289
[15]; first compound 0.253 µM
  relative viability: 0.285
[15]; first compound 0.8 µM
  relative viability: 0.287
[15]; first compound 2.53 µM
  relative viability: 0.242
[16]; first compound 0.08 µM
  relative viability: 0.177
[16]; first compound 0.253 µM
  relative viability: 0.201
[16]; first compound 0.8 µM
  relative viability: 0.191
[16]; first compound 2.53 µM
  relative viability: 0.198
[17]; first compound 0.08 µM
  relative viability: 1.08
[17]; first compound 0.253 µM
  relative viability: 1.02
[17]; first compound 0.8 µM
  relative viability: 1.12
[17]; first compound 2.53 µM
  relative viability: 0.969
[18]; first compound 0.08 µM
  relative viability: 0.91
[18]; first compound 0.253 µM
  relative viability: 0.824
[18]; first compound 0.8 µM
  relative viability: 0.843
[18]; first compound 2.53 µM
  relative viability: 0.747
[19]; first compound 0.08 µM
  relative viability: 0.277
[19]; first compound 0.253 µM
  relative viability: 0.207
[19]; first compound 0.8 µM
  relative viability: 0.255
[19]; first compound 2.53 µM
  relative viability: 0.235
[20]; first compound 0.08 µM
  relative viability: 0.207
[20]; first compound 0.253 µM
  relative viability: 0.219
[20]; first compound 0.8 µM
  relative viability: 0.216
[20]; first compound 2.53 µM
  relative viability: 0.194
[21]; first compound 0.08 µM
  relative viability: 1.25
[21]; first compound 0.253 µM
  relative viability: 1.06
[21]; first compound 0.8 µM
  relative viability: 0.903
[21]; first compound 2.53 µM
  relative viability: 0.832
[22]; first compound 0.08 µM
  relative viability: 0.201
[22]; first compound 0.8 µM
  relative viability: 0.183
[22]; first compound 2.53 µM
  relative viability: 0.174
[23]; first compound 0.08 µM
  relative viability: 0.276
[23]; first compound 0.8 µM
  relative viability: 0.252
[23]; first compound 2.53 µM
  relative viability: 0.247
